Measurements: article PMC7032632 (Experimental eye research, 2019)
Ends that are not written are not given here.

How the values were obtained:
[1] = tested on: choroidal neovascularization (CNV); details: mouse, day 0 IVT injection; ref Wang et al., 2012; cited from earlier work
[2] = tested on: VEGF-activated endothelial cells (primary human dermal microvascular EC); assay type: cell-based; details: 48 h
cells presenting 67LR = details: ref Gopalakrishna et al., 2018; Yu et al., 2009; cited from earlier work

Ac-GV-d-alloIle-Ser-Q-I-R-Pro-ethylamide [ABT-898]
laser-induced CNV, IVT injection [1]: mitigate laser-induced CNV

Ac-GYDLYRV-NH2 [PEDF 862]
EC50 [2]: 30 nM

Ac-GYDLYRVRS-NH2 [PEDF 860]
EC50 [2]: 60 nM

NFGYDLYRVRSSMSPTTN [PEDF P18]
EC50 [2]: 10 nM

YIGSR
activity range in cells presenting 67LR (cells presenting 67LR): 2 to 20 µM
